{"source": "patent US12588678B2", "about": "“Oxazoline compound, synthesis method therefor and application thereof” (NANKAI UNIVERSITY, priority 2019, dated 2026)", "key": {"[1]": {"tested_on": "Tetranychus cinnabarinus mite larvae", "assay": "Larvicidal activity test, dipping method on bean seedling leaves", "format": "in vivo", "conditions": "for mortality at 1 µg/mL: read-out: mortality of mite larvae (%), 1 mg/L; for mortality at 10 µg/mL: read-out: mortality of mite larvae (%), 10 mg/L; for mortality at 100 µg/mL: read-out: mortality of mite larvae (%), 100 mg/L; for mortality at 200 µg/mL: read-out: mortality of mite larvae (%), 200 mg/L", "source_text": "(§1) The assay examples are used to illustrate the acaricidal activity against Tetranychus cinnabarinus (mortality of mite larvae and mortality of mite eggs) of the compounds having the structure represented by formula (I), and the results are shown in tables 1 to 9, where mortality of mite larvae % =(number of dead mite larvae applied/total number of mite larvae applied)×100, and mortality of mite eggs %= (number of dead mite eggs applied/total number of mite eggs applied)×100.\nTetranychus cinnabarinus bred indoors on bean seedlings was used as a test subject by the dipping method. Move adult mites onto the newly grown complete bean seedling leaves with two leaves, cut off the bean seedlings, place the bean seedlings in a greenhouse with illumination at 25° C. for laying eggs for 24 hours, then remove adult mites and keep mite eggs. And continuously culture in the greenhouse for 5 days until mite eggs hatch into mite larvae (ensuring that the number of the mites on each tested leaf is not less than 60).\nCompletely immerse the bean seedling leaves containing the mite larvae into the sample solution to be detected with Tween at the prepared concentration for 5-6 seconds by using tweezers, slightly throw off residual liquid, put the bean seedling leaves back to the culture cup, continuously culture for 4 days and check the result. One of the plants was immersed in a solution containing no sample to be tested and the remaining additives were identical to the sample solution as a blank control. Each compound was replicated three times."}, "[2]": {"tested_on": "Tetranychus cinnabarinus mite eggs", "assay": "Activity against mite eggs, dipping method on bean seedling leaves", "format": "in vivo", "conditions": "Tetranychus cinnabarinus, 96 h, checked after 4 days; for mortality at 1 µg/mL: read-out: mortality of mite eggs (%), 1 mg/L; for mortality at 10 µg/mL: read-out: mortality of mite eggs (%), 10 mg/L; for mortality at 100 µg/mL: read-out: mortality of mite eggs (%), 100 mg/L; for mortality at 200 µg/mL: read-out: mortality of mite eggs (%), 200 mg/L; for mortality at 0.1 µg/mL: read-out: mortality of mite eggs (%), 0.1 mg/L", "source_text": "as §1\nTetranychus cinnabarinus bred indoors on bean seedlings was used as a test subject by the dipping method. Move female adult mites onto the newly grown complete bean seedling leaves with two leaves, cut off the bean seedlings, place the bean seedlings in a greenhouse with illumination at 25° C. for laying eggs for 24 hours, then remove adult mites and keep mite eggs. After continuously culturing in the greenhouse for one day, completely soak the bean seedling leaves containing the acarid eggs into the prepared sample solution to be tested for 5-6 seconds by using tweezers, slightly throw off residual liquid, put the bean seedling leaves back to the culture cup, continuously culture for 4 days and then check the result. One of the plants was immersed in a solution containing no sample to be tested and the remaining additives were identical to the sample solution as a blank control. Each compound was replicated three times."}, "[3]": {"conditions": "Tetranychus cinnabarinus, 96 h, checked after 4 days"}}, "data": [{"smiles": "Fc1cccc(F)c1C1=NC(c2ccc(CN3CCc4ccccc43)cc2)CO1", "note": "(stereo not shown) [Compound R1-14]", "values": [{"measurement": "mortality at 1 µg/mL", "setting": "[1]; [3]", "value": 30, "unit": "%"}, {"measurement": "mortality at 10 µg/mL", "setting": "[1]; [3]", "value": 70, "unit": "%"}, {"measurement": "mortality at 100 µg/mL", "setting": "[1]; [3]", "value": 95, "unit": "%"}, {"measurement": "mortality at 200 µg/mL", "setting": "[1]; [3]", "value": 100, "unit": "%"}, {"measurement": "mortality at 1 µg/mL", "setting": "[2]", "value": 40, "unit": "%"}, {"measurement": "mortality at 10 µg/mL", "setting": "[2]", "value": 70, "unit": "%"}, {"measurement": "mortality at 100 µg/mL", "setting": "[2]", "value": 95, "unit": "%"}, {"measurement": "mortality at 200 µg/mL", "setting": "[2]", "value": 100, "unit": "%"}]}, {"smiles": "Fc1cccc(F)c1C1=NC(c2ccc(COCc3cccs3)cc2)CO1", "note": "(stereo not shown) [Compound R2-11]", "values": [{"measurement": "mortality at 1 µg/mL", "setting": "[1]; [3]", "value": 70, "unit": "%"}, {"measurement": "mortality at 10 µg/mL", "setting": "[1]; [3]", "value": 80, "unit": "%"}, {"measurement": "mortality at 100 µg/mL", "setting": "[1]; [3]", "value": 100, "unit": "%"}, {"measurement": "mortality at 200 µg/mL", "setting": "[1]; [3]", "value": 100, "unit": "%"}, {"measurement": "mortality at 1 µg/mL", "setting": "[2]", "value": 75, "unit": "%"}, {"measurement": "mortality at 10 µg/mL", "setting": "[2]", "value": 90, "unit": "%"}, {"measurement": "mortality at 100 µg/mL", "setting": "[2]", "value": 100, "unit": "%"}, {"measurement": "mortality at 200 µg/mL", "setting": "[2]", "value": 100, "unit": "%"}]}, {"smiles": "Fc1cccc(F)c1C1=NC(c2ccc(CN3CCCCCC3)cc2)CO1", "note": "(stereo not shown) [Compound R1-2]", "values": [{"measurement": "mortality at 10 µg/mL", "setting": "[1]; [3]", "value": 35, "unit": "%"}, {"measurement": "mortality at 100 µg/mL", "setting": "[1]; [3]", "value": 75, "unit": "%"}, {"measurement": "mortality at 200 µg/mL", "setting": "[1]; [3]", "value": 90, "unit": "%"}, {"measurement": "mortality at 10 µg/mL", "setting": "[2]", "value": 55, "unit": "%"}, {"measurement": "mortality at 100 µg/mL", "setting": "[2]", "value": 80, "unit": "%"}, {"measurement": "mortality at 200 µg/mL", "setting": "[2]", "value": 95, "unit": "%"}]}, {"smiles": "O=C1CCC(=O)N1Cc1ccc(C2COC(c3c(F)cccc3F)=N2)cc1", "note": "(stereo not shown) [Compound R1-9]", "values": [{"measurement": "mortality at 10 µg/mL", "setting": "[1]; [3]", "value": 35, "unit": "%"}, {"measurement": "mortality at 100 µg/mL", "setting": "[1]; [3]", "value": 80, "unit": "%"}, {"measurement": "mortality at 200 µg/mL", "setting": "[1]; [3]", "value": 85, "unit": "%"}, {"measurement": "mortality at 10 µg/mL", "setting": "[2]", "value": 50, "unit": "%"}, {"measurement": "mortality at 100 µg/mL", "setting": "[2]", "value": 70, "unit": "%"}, {"measurement": "mortality at 200 µg/mL", "setting": "[2]", "value": 95, "unit": "%"}]}, {"smiles": "CCCS(=O)(=O)Oc1ccc(C2COC(c3c(F)cccc3F)=N2)cc1", "note": "(stereo not shown) [Compound R3-3]", "values": [{"measurement": "acaricidal activity compared with etoxazole", "setting": "[1]; Tetranychus cinnabarinus eggs and larvae, etoxazole as reference", "value": "equivalent or better acaricidal activity compared with etoxazole"}, {"measurement": "mortality at 0.05 µg/mL", "setting": "[1]; Tetranychus cinnabarinus, 96 h, read-out: mortality of mite larvae (%), 0.05 mg/L, checked after 4 days", "value": 40, "unit": "%"}, {"measurement": "mortality at 0.1 µg/mL", "setting": "[1]; Tetranychus cinnabarinus, 96 h, read-out: mortality of mite larvae (%), 0.1 mg/L, checked after 4 days", "value": 80, "unit": "%"}, {"measurement": "mortality at 0.5 µg/mL", "setting": "[1]; Tetranychus cinnabarinus, 96 h, read-out: mortality of mite larvae (%), 0.5 mg/L, checked after 4 days", "value": 95, "unit": "%"}, {"measurement": "mortality at 1 µg/mL", "setting": "[1]; [3]", "value": 100, "unit": "%"}, {"measurement": "mortality at 10 µg/mL", "setting": "[1]; [3]", "value": 100, "unit": "%"}, {"measurement": "mortality at 100 µg/mL", "setting": "[1]; [3]", "value": 100, "unit": "%"}, {"measurement": "mortality at 200 µg/mL", "setting": "[1]; [3]", "value": 100, "unit": "%"}, {"measurement": "mortality at 0.05 µg/mL", "setting": "[2]; read-out: mortality of mite eggs (%), 0.05 mg/L", "value": 20, "unit": "%"}, {"measurement": "mortality at 0.1 µg/mL", "setting": "[2]", "value": 50, "unit": "%"}, {"measurement": "mortality at 0.5 µg/mL", "setting": "[2]; read-out: mortality of mite eggs (%), 0.5 mg/L", "value": 75, "unit": "%"}, {"measurement": "mortality at 1 µg/mL", "setting": "[2]", "value": 90, "unit": "%"}, {"measurement": "mortality at 10 µg/mL", "setting": "[2]", "value": 100, "unit": "%"}, {"measurement": "mortality at 100 µg/mL", "setting": "[2]", "value": 100, "unit": "%"}, {"measurement": "mortality at 200 µg/mL", "setting": "[2]", "value": 100, "unit": "%"}]}, {"smiles": "Fc1cccc(F)c1C1=NC(c2ccc(COc3cccnc3)cc2)CO1", "note": "(stereo not shown) [Compound R2-13]", "values": [{"measurement": "mortality at 1 µg/mL", "setting": "[1]; [3]", "value": 60, "unit": "%"}, {"measurement": "mortality at 10 µg/mL", "setting": "[1]; [3]", "value": 95, "unit": "%"}, {"measurement": "mortality at 100 µg/mL", "setting": "[1]; [3]", "value": 100, "unit": "%"}, {"measurement": "mortality at 200 µg/mL", "setting": "[1]; [3]", "value": 100, "unit": "%"}, {"measurement": "mortality at 0.1 µg/mL", "setting": "[2]", "value": 70, "unit": "%"}, {"measurement": "mortality at 1 µg/mL", "setting": "[2]", "value": 80, "unit": "%"}, {"measurement": "mortality at 10 µg/mL", "setting": "[2]", "value": 85, "unit": "%"}, {"measurement": "mortality at 100 µg/mL", "setting": "[2]", "value": 100, "unit": "%"}, {"measurement": "mortality at 200 µg/mL", "setting": "[2]", "value": 100, "unit": "%"}]}, {"smiles": "Fc1cccc(F)c1C1=NC(c2ccc(CN3CCCC3)cc2)CO1", "note": "(stereo not shown) [Compound R1-1]", "values": [{"measurement": "mortality at 100 µg/mL", "setting": "[1]; [3]", "value": 50, "unit": "%"}, {"measurement": "mortality at 200 µg/mL", "setting": "[1]; [3]", "value": 70, "unit": "%"}, {"measurement": "mortality at 1 µg/mL", "setting": "[2]", "value": 30, "unit": "%"}, {"measurement": "mortality at 10 µg/mL", "setting": "[2]", "value": 60, "unit": "%"}, {"measurement": "mortality at 100 µg/mL", "setting": "[2]", "value": 70, "unit": "%"}, {"measurement": "mortality at 200 µg/mL", "setting": "[2]", "value": 95, "unit": "%"}]}, {"smiles": "Cc1ccc2c(ccn2Cc2ccc(C3COC(c4c(F)cccc4F)=N3)cc2)c1", "note": "(stereo not shown) [Compound R1-16]", "values": [{"measurement": "mortality at 1 µg/mL", "setting": "[1]; [3]", "value": 50, "unit": "%"}, {"measurement": "mortality at 10 µg/mL", "setting": "[1]; [3]", "value": 65, "unit": "%"}, {"measurement": "mortality at 100 µg/mL", "setting": "[1]; [3]", "value": 100, "unit": "%"}, {"measurement": "mortality at 200 µg/mL", "setting": "[1]; [3]", "value": 100, "unit": "%"}, {"measurement": "mortality at 1 µg/mL", "setting": "[2]", "value": 50, "unit": "%"}, {"measurement": "mortality at 10 µg/mL", "setting": "[2]", "value": 70, "unit": "%"}, {"measurement": "mortality at 100 µg/mL", "setting": "[2]", "value": 100, "unit": "%"}, {"measurement": "mortality at 200 µg/mL", "setting": "[2]", "value": 100, "unit": "%"}]}, {"smiles": "Fc1cccc(F)c1C1=NC(c2ccc(Cn3ccc4cc(Br)ccc43)cc2)CO1", "note": "(stereo not shown) [Compound R1-24]", "values": [{"measurement": "mortality at 10 µg/mL", "setting": "[1]; [3]", "value": 60, "unit": "%"}, {"measurement": "mortality at 100 µg/mL", "setting": "[1]; [3]", "value": 100, "unit": "%"}, {"measurement": "mortality at 200 µg/mL", "setting": "[1]; [3]", "value": 100, "unit": "%"}, {"measurement": "mortality at 1 µg/mL", "setting": "[2]", "value": 40, "unit": "%"}, {"measurement": "mortality at 10 µg/mL", "setting": "[2]", "value": 80, "unit": "%"}, {"measurement": "mortality at 100 µg/mL", "setting": "[2]", "value": 100, "unit": "%"}, {"measurement": "mortality at 200 µg/mL", "setting": "[2]", "value": 100, "unit": "%"}]}]}
